Publication PMC3694296, “11β-Hydroxysteroid dehydrogenase type 1 contributes to the balance between 7-keto- and 7-hydroxy-oxysterols in vivo” (Biochemical Pharmacology, 2013)

Legend:
[1] = target: T1, 11β-hydroxysteroid dehydrogenase type 1 (murine 11βHSD1, m11βHSD1) (Mus musculus, UniProt P50172); assay: competitive inhibition of 11-DHC reduction by recombinant enzyme (Dixon plot, HPLC); also itself reduced as a poor substrate (Km […]); assay type: biochemical
T1 construct: gene Hsd11b1; truncated form of recombinant m11βHSD1 protein (N23Δ)

[2] = target: T1, 11β-hydroxysteroid dehydrogenase type 1 (murine 11βHSD1, m11βHSD1); assay: competitive inhibition of corticosterone oxidation by recombinant enzyme (Dixon plot, HPLC); also itself oxidised as a poor substrate (Km […]); assay type: biochemical

T1 sequence (P50172 24-292): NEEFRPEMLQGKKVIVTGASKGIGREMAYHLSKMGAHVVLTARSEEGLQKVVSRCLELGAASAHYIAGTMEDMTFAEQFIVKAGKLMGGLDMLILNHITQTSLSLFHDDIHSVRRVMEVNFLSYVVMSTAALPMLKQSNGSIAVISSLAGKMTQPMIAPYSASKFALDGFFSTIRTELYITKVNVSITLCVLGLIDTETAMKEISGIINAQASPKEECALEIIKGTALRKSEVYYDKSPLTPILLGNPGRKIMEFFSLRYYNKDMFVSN

Structure (SMILES)	Ki [1]	Ki [2]
CC(C)CCC[C@@H](C)[C@H]1CC[C@H]2[C@@H]3C(=O)C=C4C[C@@H](O)CC[C@]4(C)[C@H]3CC[C@]12C [7KC, 7-ketocholesterol]	7.33 ± 1.76 µM	
CC(C)CCC[C@@H](C)[C@H]1CC[C@H]2[C@@H]3[C@@H](O)C=C4C[C@@H](O)CC[C@]4(C)[C@H]3CC[C@]12C [7βOHC, 7β-hydroxycholesterol]		0.91 ± 0.05 µM
